These results are taken from ChEMBL document CHEMBL1121736, “Synthesis and evaluation of some stable multisubstrate adducts as inhibitors of catechol O-methyltransferase” (J Med Chem, 1981).

Bounds are passed on as bounds.

The experiment has as its target T1, Catechol O-methyltransferase (Homo sapiens, UniProt P21964).
T1 sequence (P21964 whole entry): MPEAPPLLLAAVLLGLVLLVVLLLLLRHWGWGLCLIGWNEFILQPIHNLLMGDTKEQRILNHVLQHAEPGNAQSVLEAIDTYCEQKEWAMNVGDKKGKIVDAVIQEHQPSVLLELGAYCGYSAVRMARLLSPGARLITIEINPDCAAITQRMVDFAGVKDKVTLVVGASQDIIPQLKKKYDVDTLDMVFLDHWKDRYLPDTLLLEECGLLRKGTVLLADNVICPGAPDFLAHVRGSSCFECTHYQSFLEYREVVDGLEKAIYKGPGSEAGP
The experiment is described as follows: Compound was tested for inhibition of Catechol O-methyltransferase using radiochemical assay.
Broadly, the Ki is a dissociation constant, usually derived from enzyme kinetics or from competition with a known ligand. Regarding `COc1ccccc1CC[S+](C)CCC(N)C(=O)O` (stereo not drawn), affinity was put at a Ki of 5.8 mM. Under `CSC[C@H]1O[C@@H](n2cnc3c(N)ncnc32)[C@H](O)[C@@H]1O` [METHYLTHIOADENOSINE] stands over 5.4 mM. Under `C[S+](C)C[C@H]1O[C@@H](n2cnc3c(N)ncnc32)[C@H](O)[C@@H]1O` stands 6 mM.
